Experimental data as given in BindingDB's records for doi:10.1021/jm00126a009 (Northeastern University, 1989).

How the values were obtained:
[1] = Compound was evaluated for the ability to displace [3H]spiperone at Dopamine receptor D2 in porcine anterior pituitary gland as low affinity state
[2] = Compound was evaluated for the ability to displace [3H]spiperone at Dopamine receptor D2 in porcine anterior pituitary gland as high affinity state
[3] = Compound was evaluated for the ability to displace [3H]spiperone at Dopamine receptor D2 in porcine anterior pituitary gland as low affinity state; remark: listed apart in the source
[4] = Compound was evaluated for the ability to displace [3H]spiperone at dopamine receptor in porcine anterior pituitary gland as high affinity state

SMILES	Kd [1] [µM]	Kd [2] [µM]	Kd [3] [µM]	Kd [4] [µM]
CN1CCc2cc(Br)cc3c2[C@H]1Cc1ccc(O)c(O)c1-3	0.728	0.0068		
CN1CCc2cc(N)cc3c2[C@H]1Cc1ccc(O)c(O)c1-3	3.3		0.02	
CN1CCc2cc(F)cc3c2[C@H]1Cc1ccc(O)c(O)c1-3 [(R)-2-Fluoro-6-methyl-5,6,6a,7-tetrahydro-4H-dibenzo[de,g]quinoline-10,11-diol]		0.094		0.00043
